The target of test [1] is T1, Tyrosine-protein phosphatase non-receptor type 1 (Homo sapiens, UniProt P18031).
T1 sequence (P18031 whole entry): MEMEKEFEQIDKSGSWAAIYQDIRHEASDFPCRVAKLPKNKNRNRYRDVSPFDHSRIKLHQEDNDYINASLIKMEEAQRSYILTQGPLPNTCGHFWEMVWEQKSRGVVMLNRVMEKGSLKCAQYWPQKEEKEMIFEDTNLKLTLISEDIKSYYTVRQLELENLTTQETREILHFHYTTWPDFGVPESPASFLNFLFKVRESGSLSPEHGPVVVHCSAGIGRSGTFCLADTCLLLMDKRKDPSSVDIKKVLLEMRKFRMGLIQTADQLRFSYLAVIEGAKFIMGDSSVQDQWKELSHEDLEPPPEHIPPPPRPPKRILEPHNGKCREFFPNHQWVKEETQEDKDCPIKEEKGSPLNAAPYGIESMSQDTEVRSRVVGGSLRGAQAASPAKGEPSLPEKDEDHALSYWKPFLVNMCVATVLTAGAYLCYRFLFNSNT
Nature of the test: Inhibitory potency for the protein tyrosine phosphatase (PTP 1B)-catalyzed hydrolysis of p-nitrophenol phosphate. Format: functional.

In test [2] the target is T1, Tyrosine-protein phosphatase non-receptor type 1. Nature of the test: Inhibitory potency for the protein tyrosine phosphatase (PTP 1B)-catalyzed hydrolysis of p-nitrophenol phosphate; No inhibition. Format: functional.

`O=P(O)(O)C(F)(F)c1ccc(C#Cc2ccccc2)cc1` displayed an IC50 in test [1] of 128 µM.

`COc1ccc(-c2ccc(C(F)(F)P(=O)(O)O)cc2)cc1` displayed an IC50 in test [1] of 451 µM.

As to `O=P(O)(O)C(F)(F)c1ccc(/C=C/c2ccccc2)cc1`, in test [1], the half-inhibitory concentration (IC50) was 450 µM.

With `CS(=O)(=O)Nc1cc(C(F)(F)P(=O)(O)O)ccc1C#Cc1ccccc1`, in test [1], it took 167 µM to reach half-maximal inhibition (IC50).

Turning to `CS(=O)(=O)Nc1cc(C(F)(F)P(=O)(O)O)ccc1/C=C/c1ccccc1`, half-maximal inhibition in test [1] (IC50) required 176 µM.

In the case of `O=P(O)(O)C(F)(F)c1cccc(C#Cc2ccccc2)c1`, in test [1], inhibition was half-maximal at 136 µM (IC50).

Regarding `C#Cc1ccc(C(F)(F)P(=O)(O)O)cc1`, the IC50 in test [1] was found to be 77.5 µM.

In test [1], `C#Cc1cccc(C(F)(F)P(=O)(O)O)c1` yielded an IC50 of 19 µM.

Regarding `O=P(O)(O)C(F)(F)c1cccc(/C=C/c2ccccc2)c1`, in test [1], 386 µM corresponded to half-maximal inhibition (IC50).

The molecule `CS(=O)(=O)N(c1cc(C(F)(F)P(=O)(O)O)ccc1/C=C/c1ccccc1)S(C)(=O)=O` registered an IC50 in test [1] of 57.9 µM.

In test [1], `O=P(O)(O)C(F)(F)c1ccc(-c2ccccc2)cc1` registered an IC50 of 779 µM.

Regarding `CS(=O)(=O)N(c1cc(C(F)(F)P(=O)(O)O)ccc1C#Cc1ccccc1)S(C)(=O)=O`, inhibition in test [1] was half-maximal at 88.7 µM (IC50).

Regarding `O=P(O)(O)C(F)(F)c1ccccc1`, in test [2], the IC50 result is reported as “Not Active”.

In the case of `O=P(O)(O)C(F)(F)c1ccc2ccccc2c1`, the IC50 in test [1] was 718 µM.

The values above are taken from ChEMBL document CHEMBL1131941, “Synthesis and biological evaluation of alpha,alpha-difluorobenzylphosphonic acid derivatives as small molecular inhibitors of protein-tyrosine phosphatase 1B” (Bioorg Med Chem Lett, 1999).
